Reference: patent publication US9127044B2, “Cyclic depsipeptides” (NOVARTIS AG, priority 2007, dated 2015)
Read-outs that look alike come from different tables or passages of the source. Where a SMILES comes first, the peptide text is derived from it. Bridges are numbered along the chain shown (N, C = ends). [ ]: non-standard residue; d: D form. The star is where a group is joined. ξ: configuration not given here. NMeY = CN[C@@H](Cc1ccc(O)cc1)C(=O)O; Butanoyl(2ξ-Me) = CCC(C)C(=O)*; Ile(3ξ) = CCC(C)[C@H](N)C(=O)O; Isovaleryl = CC(C)CC(=O)*

Tests used:
[1] = target: human kallikrein 7 (Homo sapiens, UniProt P49862); test: Kallikrein-7 inhibitory activity in vitro (fluorescence-quenched substrate); type: biochemical
Sequence of human kallikrein 7 (P49862 30-253): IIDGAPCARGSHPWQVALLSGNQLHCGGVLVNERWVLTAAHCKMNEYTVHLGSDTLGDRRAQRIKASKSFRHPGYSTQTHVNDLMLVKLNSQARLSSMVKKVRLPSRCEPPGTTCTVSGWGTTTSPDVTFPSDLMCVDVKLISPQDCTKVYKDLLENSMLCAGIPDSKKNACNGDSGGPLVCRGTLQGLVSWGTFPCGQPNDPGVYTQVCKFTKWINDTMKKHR
Method: (§1) IC50 for human kallikrein can be measured using the fluorescence-quenched substrate Ac-Glu-Asp(EDANS)-Lys-Pro-Ale-Leu-Phe^Arg-Leu-Gly-Lys(DABCYL)-Glu-NH2 (where ^ indicates the scissile bond, identified by MS analysis) which can be purchased from Biosyntan (Berlin, Germany). Enzymatic reactions are conducted in 50 mM sodium citrate buffer at pH 5.6 containing 150 mM NaCl and 0.05% (w/v) CHAPS. For the determination of IC50 values the assay is performed at room temperature in 384-well plates. All final assay volumes are 30 μl. Test compounds are dissolved in 90% (v/v) DMSO/water and diluted in water (containing 0.05% (w/v) CHAPS) to 3-times the desired assay concentration. The 11 final compound concentrations are: 0.3 nM, 1 nM, 3 nM, 10 nM, 30 nM, 100 nM, 300 nM, 1 μM, 3 μM, 10 μM and 30 μM. For each assay, 10 μl water/CHAPS (±test compound) are added per well, followed by 10 μl protease solution (diluted with 1.5× assay buffer). The protease concentration in final assay solution is 0.2 nM (according to the enzyme concentrations determined by the Bradford method). After 1 hour of incubation at room temperature, the reaction is started by addition of 10 μl substrate solution (substrate dissolved in 1.5× assay buffer, final concentration is 2 μM). […] The IC50 value is calculated from the plot of percentage of inhibition vs. inhibitor concentration using non-linear regression analysis software (XLfit, Vers. 4.0; ID Business Solution Ltd., Guildford, Surrey, UK).
The fluorescence-quenched substrate Ac-Glu-Asp(EDANS)-Lys-Pro-Ale-Leu-Phe^Arg-Leu-Gly-Lys(DABCYL)-Glu-NH2 (where ^ indicates the scissile bond, identified by MS analysis) is purchased from Biosyntan (Berlin, Germany) and kept as a 5 mM stock solution in DMSO at −20° C. All other chemicals are of analytical grade.
Enzymatic reactions are conducted in 50 mM sodium citrate buffer at pH 5.6 containing 150 mM NaCl and 0.05% (w/v) CHAPS.
All protein and peptide containing solutions are handled in siliconized tubes (Life Systems Design, Merenschwand, Switzerland). The compound solutions as well as the enzyme and the substrate solutions are transferred to the 384-well plates (black Cliniplate; cat. no. 95040020 Labsystems Oy, Finland) by means of a CyBi-Well 96-channel pipettor (CyBio AG, Jena, Germany).
(§2) For fluorescence intensity (FI) measurements an Ultra Evolution reader (TECAN, Maennedorf, Switzerland) is used. The instrument is equipped with a combination of a 350 nm (20 nm bandwidth) and a 500 nm (25 nm bandwidth) bandpass filter for fluorescence excitation and emission acquisition, respectively. To increase the signal:background ratio, an appropriate dichroic mirror is employed. The optical filters and the dichroic mirror are purchased from TECAN. The fluorophores in each well are excited by three flashes per measurement.
as §1, with “For” for “IC50 for human kallikrein can be measured using the fluorescence-quenched substrate Ac-Glu-Asp(EDANS)-Lys-Pro-Ale-Leu-Phe^Arg-Leu-Gly-Lys(DABCYL)-Glu-NH2 (where ^ indicates the scissile bond, identified by MS analysis) which can be purchased from Biosyntan (Berlin, Germany). Enzymatic reactions are conducted in 50 mM sodium citrate buffer at pH 5.6 containing 150 mM NaCl and 0.05% (w/v) CHAPS. For”, “volumes were” for “volumes are”, “concentration was” for “concentration is”

[2] = target: T1, Human neutrophil elastase (Homo sapiens, UniProt P08246); test: HNE inhibitory activity in vitro (fluorescence-quenched substrate); type: biochemical
T1 construct: purchased Elastin Products Company, Inc. (EPC, Owensville, USA) SE563
T1 sequence (P08246 30-267): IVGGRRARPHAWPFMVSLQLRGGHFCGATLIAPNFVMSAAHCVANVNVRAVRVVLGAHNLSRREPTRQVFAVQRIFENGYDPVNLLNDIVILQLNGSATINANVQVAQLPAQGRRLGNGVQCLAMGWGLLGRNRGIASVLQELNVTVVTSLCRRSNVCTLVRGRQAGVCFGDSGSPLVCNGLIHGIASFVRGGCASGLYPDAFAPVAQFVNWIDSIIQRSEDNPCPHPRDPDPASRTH
Method: Human neutrophil elastase (cat. no. SE563) is purchased from Elastin Products Company, Inc. (EPC, Owensville, USA). The dry powder (purity >95% stated by the supplier) was dissolved in 20 mM sodium acetate buffer, pH 5.0, 50% (v/v) glycerol, and frozen at −80° C. in aliquots.
The fluorescence-quenched substrate (DABCYL-Ser-Glu-Val^Asn-Leu-Asp-Ala-Glu-Phe-EDANS, where ^ indicates the scissile bond, identified by MS analysis) was purchased from Bachem AG (Bubendorf, Switzerland), and kept as a 5 mM stock solution in DMSO at −20° C. All other chemicals were of analytical grade.
Enzymatic reactions were conducted in 100 mM Tris/HCl buffer at pH 7.5, containing 500 mM NaCl, and 0.05% (w/v) CHAPS.
All protein and peptide containing solutions are handled in siliconized tubes (Life Systems Design, Merenschwand, Switzerland).
The compound solutions as well as the enzyme and the substrate solutions are transferred to the 384-well plates (black Cliniplate; cat. no. 95040020 Labsystems Oy, Finland) by means of a CyBi-Well 96-channel pipettor (CyBio AG, Jena, Germany).
as §2

[3] = test system: Crl:NMRI mice; test: Anti-inflammatory activity in murine model of allergic contact dermatitis (ACD), oxazolone; type: in vivo
Method: Method: Crl:NMRI mice were sensitized on the shaved abdomen with 50 μl of 2% oxazolone on day 1 and challenged with 10 μl oxazolone on the inner surface of the right ear on day 8. The unchallenged left ears served as normal controls and dermatitis was evaluated from the difference in auricular weight (taken as a measure of inflammatory swelling) on day 9. The animals were treated topically with 10 μl test compound or the solvent only 30 min after the challenge. The efficacy of the treatment was calculated as the percentage inhibition of inflammatory auricular swelling relative to animals treated with the vehicle alone.

[4] = test system: human chymotrypsin; test: Inhibition of human chymotrypsin; type: biochemical
[5] = Table 14, concentration of test compound 10 mM
[6] = Table 14, concentration of test compound 30 mM
[7] = Table 11, read-out: hKallikrein7 IC 50
[8] = Table 11, read-out: human neutrophile elastase IC 50

Compound	IC50 ([1]; hKallikrein7 IC 50, Table 11) [nM]	IC50 [2] [nM]	% Inhibition of inflammatory swelling [3, 5] [%]	% Inhibition of inflammatory swelling [3, 6] [%]	also measured
CCC(C)C1NC(=O)C(Cc2ccc(O)cc2)N(C)C(=O)C(C(C)CC)N2C(=O)C(CCC2OCc2ccccc2)NC(=O)C(CC(C)C)NC(=O)C(NC(=O)C(CCC(N)=O)NC(=O)C(C)C)C(C)OC1=O (stereo not shown) [example 9]	2	3	42	38	
CCOC1CCC2NC(=O)C(CC(C)C)NC(=O)C(NC(=O)C(CCC(N)=O)NC(=O)C(C)C)C(C)OC(=O)C(C(C)CC)NC(=O)C(Cc3ccc(O)cc3)N(C)C(=O)C(C(C)CC)N1C2=O (stereo not shown) [example 10]	3.5	9	22	25	
CCC(C)C1NC(=O)C(Cc2ccc(OCc3cc(C)n(C)n3)cc2)N(C)C(=O)C(C(C)CC)N2C(=O)C(CCC2O)NC(=O)C(CC(C)C)NC(=O)C(NC(=O)C(CCC(N)=O)NC(=O)C(C)C)C(C)OC1=O (stereo not shown) [example 43]			42	55	IC50 [1, 7]: 0.2 nM; IC50 [2, 8]: 1 nM
CC(C)CC(=O)N[C@@H](CCC(N)=O)C(=O)N[C@@H]1C(=O)N[C@@H](CC(C)C)C(=O)NC2CC[C@H](O)N(C2=O)[C@@H](Cc2ccccc2)C(=O)N(C)[C@@H](Cc2ccc(O)cc2)C(=O)N[C@@H](C(C)C)C(=O)O[C@@H]1C (stereo partly shown) [formula VIII]					IC50 [4]: ~4 nM; IC50 ([1]; read-out: IC50 for human kallikrein 7): < 3 nM; IC50 ([2]; read-out: IC50 human neutrophile elastase): ~2.5 nM
CCC(C)[C@@H]1NC(=O)[C@H](Cc2ccc(O)cc2)N(C)C(=O)[C@H](C(C)CC)N2C(=O)C(CC[C@@H]2O)NC(=O)[C@H](CC(C)C)NC(=O)[C@@H](NC(=O)[C@H](CCC(N)=O)NC(=O)c2ccccc2)[C@@H](C)OC1=O (stereo partly shown) [formula XIII]		30			IC50 [1]: 0.7 nM
CCC(C)[C@@H]1NC(=O)[C@H](Cc2ccc(O)cc2)N(C)C(=O)[C@H](C(C)CC)N2C(=O)C(CC[C@@H]2O)NC(=O)[C@H](CC(C)C)NC(=O)[C@@H](NC(=O)[C@H](CCC(N)=O)NC(C)=O)[C@@H](C)OC1=O (stereo partly shown) [formula XII]	4	50			
CCC(C)C(=O)N[C@@H](CCC(N)=O)C(=O)N[C@@H]1C(=O)N[C@@H](CC(C)C)C(=O)N2CCC[C@H]2C(=O)N[C@@H](C(C)CC)C(=O)N(C)[C@@H](Cc2ccc(O)cc2)C(=O)N[C@@H](C(C)CC)C(=O)O[C@@H]1C (stereo partly shown) [formula XIV] ({Butanoyl(2ξ-Me)}-QTLP[Ile(3ξ)][NMeY][Ile(3ξ)]; ester 2-C)	200	2700			
CCC(C)[C@@H]1NC(=O)[C@H](Cc2ccc(O)cc2)N(C)C(=O)[C@H](Cc2ccccc2)N2C(=O)C(CC[C@@H]2O)NC(=O)[C@H](CC(C)C)NC(=O)[C@@H](NC(=O)[C@H](CCCNC(N)=O)NC(=O)C(C)C)[C@@H](C)OC1=O (stereo partly shown) [formula XV]	4	80			
CC(C)CC(=O)N[C@@H](CCC(N)=O)C(=O)N[C@@H]1C(=O)N[C@@H](CC(C)C)C(=O)N2CCC[C@@H]2C(=O)N[C@@H](Cc2ccccc2)C(=O)N[C@@H](Cc2ccc(O)cc2)C(=O)N[C@@H](C(C)C)C(=O)O[C@@H]1C [formula X] (Isovaleryl-QTL[dP]FYV; ester 2-C)					IC50 [1, 7]: 20 nM; IC50 [2, 8]: 200 nM
